Measured values: patent publication US20260217767A1, “NOVEL A4B7 THIOETHER PEPTIDE DIMER ANTAGONISTS” (Protagonist Therapeutics, Inc., priority 2014, published 2026)
Where a SMILES comes first, the peptide text is derived from it.

Target: T1, rh integrin α4β7 (Homo sapiens, UniProt P13612+P26010)
T1 construct: purchased R&D Systems 5397-A30
T1 sequence (P13612 34-977 limits assumed): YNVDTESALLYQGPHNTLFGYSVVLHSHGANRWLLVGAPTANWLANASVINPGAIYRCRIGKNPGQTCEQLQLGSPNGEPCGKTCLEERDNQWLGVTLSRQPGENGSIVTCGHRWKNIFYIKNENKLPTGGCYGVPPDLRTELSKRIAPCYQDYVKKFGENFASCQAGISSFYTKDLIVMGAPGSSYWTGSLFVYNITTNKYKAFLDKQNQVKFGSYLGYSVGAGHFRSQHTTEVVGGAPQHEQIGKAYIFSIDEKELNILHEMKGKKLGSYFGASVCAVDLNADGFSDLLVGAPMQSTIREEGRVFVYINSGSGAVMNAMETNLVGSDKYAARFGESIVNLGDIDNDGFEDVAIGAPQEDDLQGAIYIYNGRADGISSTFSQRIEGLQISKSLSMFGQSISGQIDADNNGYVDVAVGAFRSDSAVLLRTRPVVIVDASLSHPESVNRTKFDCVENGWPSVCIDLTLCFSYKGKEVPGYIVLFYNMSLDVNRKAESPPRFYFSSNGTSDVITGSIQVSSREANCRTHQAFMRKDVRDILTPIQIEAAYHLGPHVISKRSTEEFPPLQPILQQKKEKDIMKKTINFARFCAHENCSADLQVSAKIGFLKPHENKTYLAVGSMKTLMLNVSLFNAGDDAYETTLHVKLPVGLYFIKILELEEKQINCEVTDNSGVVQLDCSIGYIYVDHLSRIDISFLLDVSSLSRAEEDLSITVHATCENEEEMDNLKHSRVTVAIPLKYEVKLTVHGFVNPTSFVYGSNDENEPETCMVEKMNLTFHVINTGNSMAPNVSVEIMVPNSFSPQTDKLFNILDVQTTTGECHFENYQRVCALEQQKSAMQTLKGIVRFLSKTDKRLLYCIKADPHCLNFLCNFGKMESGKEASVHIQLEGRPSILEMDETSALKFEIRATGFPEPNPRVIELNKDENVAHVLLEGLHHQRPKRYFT
T1 sequence (P26010 20-723 limits assumed): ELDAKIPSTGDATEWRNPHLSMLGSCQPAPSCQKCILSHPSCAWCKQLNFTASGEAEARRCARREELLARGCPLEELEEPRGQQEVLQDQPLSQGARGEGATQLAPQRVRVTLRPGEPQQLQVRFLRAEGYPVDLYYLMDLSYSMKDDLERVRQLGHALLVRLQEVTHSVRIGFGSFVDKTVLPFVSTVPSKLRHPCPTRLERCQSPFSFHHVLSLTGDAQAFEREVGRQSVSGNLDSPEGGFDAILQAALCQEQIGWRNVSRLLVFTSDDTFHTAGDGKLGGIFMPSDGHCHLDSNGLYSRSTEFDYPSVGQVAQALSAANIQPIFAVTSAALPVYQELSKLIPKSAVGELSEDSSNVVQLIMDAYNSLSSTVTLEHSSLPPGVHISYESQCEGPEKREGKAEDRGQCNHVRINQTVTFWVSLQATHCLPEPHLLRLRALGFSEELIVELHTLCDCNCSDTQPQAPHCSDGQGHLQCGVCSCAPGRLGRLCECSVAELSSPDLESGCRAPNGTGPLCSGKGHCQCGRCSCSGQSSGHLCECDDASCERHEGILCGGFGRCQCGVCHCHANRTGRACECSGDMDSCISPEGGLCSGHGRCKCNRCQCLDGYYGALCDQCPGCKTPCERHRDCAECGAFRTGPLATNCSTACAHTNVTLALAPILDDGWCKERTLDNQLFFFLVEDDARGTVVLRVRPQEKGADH
Test: α4β7-MAdCAM Competition ELISA
Assay type: binding
Conditions: thioether monomer peptides, Table 6; read-out: ELISA A4B7
Protocol: α4β7-MAdCAM Competition ELISA A nickel coated plate (Pierce #15442) was coated with rh integrin α4β[…] Systems #5397-A30) at 800 ng/well and incubated at room temperature with shaking for 1 hr. The solution was then removed by shaking and blocked with assay buffer (50 mM Tris-HCl pH7.6, 150 mM NaCl, 1 mM MnCl2 or MgCl2, 0.05% Tween-20 and 0.5% BSA) at 250 ul/well. The plate was then incubated at room temperature for 1 hr. Each well was washed 3 times with wash buffer (50 mM Tris-HCl pH7.6, 100 mM NaCl, 1 mM MnCl2 or MgCl2, 0.05% Tween-20). To each well was added 25 ul of a serial dilution (3-fold dilutions in assay buffer) of peptides starting at 20 μM. 25 ul of recombinant human MAdCAM-1 (R&D Systems #6056-MC) was then added to each well at a fixed concentration 20 nM. The final starting peptide concentration was 10 μM, and the final MAdCAM-1 concentration was 10 nM. The plates were then incubated at room temperature for 1 hr to reach binding equilibrium. The wells were then washed three times with wash buffer. 50 ul of mouse anti-human IgG1-HRP (Invitrogen #A10648) diluted in 1:2000 in assay buffer was then added to each well. The wells were incubated at room temperature for 45 min with shaking. The wells were then washed 3 times with wash buffer. 100 ul of TMB were then added to each well and closely observe during development time. The reaction was stopped with 2N H2SO4 and absorbance was read at 450 nm.

Structure (SMILES)	IC50 [nM]
CC(C)C[C@H](NC(=O)[C@@H](CCC(=O)O)NC(=O)[C@H](Cc1c[nH]c2ccccc12)NC(=O)[C@H]1NC(=O)[C@H](CC(C)C)NC(=O)[C@H]([C@@H](C)O)NC(=O)[C@H](CC(=O)O)NC(=O)[C@H](CO)NC(=O)[C@H](CCCNC(=N)N)N(C)C(=O)c2ccccc2CSC1(C)C)C(N)=O [compound 99] (HELM PEPTIDE1{[meR].S.D.T.L.[Pen].W.[dE].L.[am]}|CHEM1{[O=C(c1ccccc1C[*:2])[*:1]]}$PEPTIDE1,CHEM1,1:R1-1:R1|PEPTIDE1,CHEM1,6:R3-1:R2$$$V2.0)	< 25
CC(=O)NCCCC[C@@H](NC(=O)[C@@H](CCC(=O)O)NC(=O)[C@H](Cc1ccccc1)NC(=O)[C@H]1NC(=O)[C@H](CC(C)C)NC(=O)[C@H]([C@@H](C)O)NC(=O)[C@H](CC(=O)O)NC(=O)[C@H](CO)NC(=O)[C@H](CCCNC(=N)N)N(C)C(=O)c2ccccc2CSC1(C)C)C(N)=O [compound 87] (HELM PEPTIDE1{[meR].S.D.T.L.[Pen].F.[dE].[dK].[am]}|PEPTIDE2{[ac]}|CHEM1{[O=C(c1ccccc1C[*:2])[*:1]]}$PEPTIDE1,PEPTIDE2,9:R3-1:R2|PEPTIDE1,CHEM1,1:R1-1:R1|PEPTIDE1,CHEM1,6:R3-1:R2$$$V2.0)	< 25
CCCC[C@@H]1NC(=O)[C@H]([C@@H](C)O)NC(=O)[C@H](CC(=O)O)NC(=O)[C@H](CO)NC(=O)[C@H](CCCNC(=N)N)N(C)C(=O)c2ccccc2CSC(C)(C)[C@@H](C(=O)N[C@@H](Cc2c[nH]c3ccccc23)C(=O)N[C@@H](CCC(=O)O)C(=O)N[C@H](CCCCNC(C)=O)C(N)=O)NC1=O [compound 86] (HELM PEPTIDE1{[meR].S.D.T.[Nle].[Pen].W.E.[dK].[am]}|PEPTIDE2{[ac]}|CHEM1{[O=C(c1ccccc1C[*:2])[*:1]]}$PEPTIDE1,PEPTIDE2,9:R3-1:R2|PEPTIDE1,CHEM1,1:R1-1:R1|PEPTIDE1,CHEM1,6:R3-1:R2$$$V2.0)	< 25
CC(=O)NCCCC[C@H](C(N)=O)N(C)C(=O)[C@H](CCC(=O)O)NC(=O)[C@H](Cc1c[nH]c2ccccc12)NC(=O)[C@H]1NC(=O)[C@H](CC(C)C)NC(=O)[C@H]([C@@H](C)O)NC(=O)[C@H](CC(=O)O)NC(=O)[C@H](CO)NC(=O)[C@H](CCCNC(=N)N)N(C)C(=O)c2ccccc2CSC1(C)C [compound 84] (HELM PEPTIDE1{[meR].S.D.T.L.[Pen].W.E.[CN([C@H](CCCCN[*:3])C(=O)[*:2])[*:1]].[am]}|PEPTIDE2{[ac]}|CHEM1{[O=C(c1ccccc1C[*:2])[*:1]]}$PEPTIDE1,PEPTIDE2,9:R3-1:R2|PEPTIDE1,CHEM1,1:R1-1:R1|PEPTIDE1,CHEM1,6:R3-1:R2$$$V2.0)	< 25
CC(=O)NCCCC[C@@H](NC(=O)[C@H](CCC(=O)O)NC(=O)[C@H](Cc1ccc(O)cc1)NC(=O)[C@H]1NC(=O)[C@H](CC(C)C)NC(=O)[C@H]([C@@H](C)O)NC(=O)[C@H](CC(=O)O)NC(=O)[C@H](CO)NC(=O)[C@H](CCCNC(=N)N)N(C)C(=O)c2ccccc2CSC1(C)C)C(N)=O [compound 90] (HELM PEPTIDE1{[meR].S.D.T.L.[Pen].Y.E.[dK].[am]}|PEPTIDE2{[ac]}|CHEM1{[O=C(c1ccccc1C[*:2])[*:1]]}$PEPTIDE1,PEPTIDE2,9:R3-1:R2|PEPTIDE1,CHEM1,1:R1-1:R1|PEPTIDE1,CHEM1,6:R3-1:R2$$$V2.0)	< 25
CC(C)C[C@@H]1NC(=O)[C@H]([C@@H](C)O)NC(=O)[C@H](CC(=O)O)NC(=O)[C@H](CO)NC(=O)[C@H](CCCNC(=N)N)N(C)C(=O)C(C)(C)SC[C@@H](C(=O)N[C@@H](Cc2c[nH]c3ccccc23)C(=O)N[C@H](CCCCN)C(N)=O)NC1=O [compound 52]	> 1000
CC(C)C[C@@H]1NC(=O)[C@H]([C@@H](C)O)NC(=O)[C@H](CC(=O)O)NC(=O)[C@H](CO)NC(=O)[C@H](CCCNC(=N)N)N(C)C(=O)C(C)SC(C)(C)[C@@H](C(=O)N[C@@H](Cc2c[nH]c3ccccc23)C(=O)N[C@H](CCCCN)C(N)=O)NC1=O (single isomer, unassigned) [compound 54]	> 1000
CC(C)C[C@@H]1NC(=O)[C@H]([C@@H](C)O)NC(=O)[C@H](CC(=O)O)NC(=O)[C@H](CO)NC(=O)[C@H](CCCNC(=N)N)N(C)C(=O)c2ccccc2CSC(C)(C)[C@@H](C(=O)N[C@@H](Cc2c[nH]c3ccccc23)C(=O)N[C@H](CCC(=O)O)C(=O)N[C@H](Cc2c[nH]cn2)C(N)=O)NC1=O [compound 109] (HELM PEPTIDE1{[meR].S.D.T.L.[Pen].W.[dE].[dH].[am]}|CHEM1{[O=C(c1ccccc1C[*:2])[*:1]]}$PEPTIDE1,CHEM1,1:R1-1:R1|PEPTIDE1,CHEM1,6:R3-1:R2$$$V2.0)	< 25
CC(C)C[C@@H]1NC(=O)[C@H]([C@@H](C)O)NC(=O)[C@H](CC(=O)O)NC(=O)[C@H](CO)NC(=O)[C@H](CCCNC(=N)N)N(C)C(=O)c2ccccc2CSC(C)(C)[C@@H](C(=O)N[C@@H](Cc2ccc(O)cc2)C(=O)N[C@H](CCC(=O)O)C(=O)N[C@H](CCCCN)C(N)=O)NC1=O [compound 79] (HELM PEPTIDE1{[meR].S.D.T.L.[Pen].Y.[dE].[dK].[am]}|CHEM1{[O=C(c1ccccc1C[*:2])[*:1]]}$PEPTIDE1,CHEM1,1:R1-1:R1|PEPTIDE1,CHEM1,6:R3-1:R2$$$V2.0)	< 25
CC(=O)NCCCC[C@@H](C(N)=O)N(C)C(=O)[C@H](Cc1ccc(O)cc1)NC(=O)[C@H](Cc1c[nH]c2ccccc12)NC(=O)[C@H]1NC(=O)[C@H](CC(C)C)NC(=O)[C@H]([C@@H](C)O)NC(=O)[C@H](CC(=O)O)NC(=O)[C@H](CO)NC(=O)[C@H](CCCNC(=N)N)N(C)C(=O)c2ccccc2CSC1(C)C [compound 85] (HELM PEPTIDE1{[meR].S.D.T.L.[Pen].W.Y.[CN([C@@H](CCCCN[*:3])C(=O)[*:2])[*:1]].[am]}|PEPTIDE2{[ac]}|CHEM1{[O=C(c1ccccc1C[*:2])[*:1]]}$PEPTIDE1,PEPTIDE2,9:R3-1:R2|PEPTIDE1,CHEM1,1:R1-1:R1|PEPTIDE1,CHEM1,6:R3-1:R2$$$V2.0)	< 25
CC(C)C[C@@H]1NC(=O)[C@H]([C@@H](C)O)NC(=O)[C@H](CC(=O)O)NC(=O)[C@H](CO)NC(=O)[C@H](CCCNC(=N)N)N(C)C(=O)c2ccccc2CSC(C)(C)[C@@H](C(=O)N[C@@H](Cc2c[nH]c3ccccc23)C(=O)N[C@H](CCC(=O)O)C(=O)N[C@@H](CCC(N)=O)C(N)=O)NC1=O [compound 103] (HELM PEPTIDE1{[meR].S.D.T.L.[Pen].W.[dE].Q.[am]}|CHEM1{[O=C(c1ccccc1C[*:2])[*:1]]}$PEPTIDE1,CHEM1,1:R1-1:R1|PEPTIDE1,CHEM1,6:R3-1:R2$$$V2.0)	< 25
